Laboratory results: patent US20050070510A1, “Substituted tetracycline compounds as synergistic antifungal agents” (Paratek Pharmaceuticals, Inc., priority 2001, published 2005)

Tested on: COS-1 cells
Assay: In vitro mammalian cytotoxicity assay (Resazurin)

Structure (SMILES) | In Vitro Cytotoxicity
CN(C)c1cc(CN(Cc2ccn[nH]2)Cc2ccn[nH]2)c(O)c2c1C[C@@]1(N)C[C@@]3(N)[C@H](N(C)C)C(O)=C(C(N)=O)C(=O)[C@@]3(C#N)C(O)=C1C2=O [TA] | * (toxicities greater than >25 μg/ml are represented by *)
CN(C)c1cc(CNCC2CCCCC2)c(O)c2c1C[C@@]1(N)C[C@@]3(N)[C@H](N(C)C)C(O)=C(C(N)=O)C(=O)[C@@]3(C#N)C(O)=C1C2=O [TB] | * (toxicities greater than >25 μg/ml are represented by *)
CN(C)c1cc(CNC(N)=O)c(O)c2c1C[C@@]1(N)C[C@@]3(N)[C@H](N(C)C)C(O)=C(C(N)=O)C(=O)[C@@]3(C#N)C(O)=C1C2=O [TD] | * (toxicities greater than >25 μg/ml are represented by *)
Cc1coc(NCc2cc(N(C)C)c3c(c2O)C(=O)C2=C(O)[C@]4(C#N)C(=O)C(C(N)=O)=C(O)[C@@H](N(C)C)[C@]4(N)C[C@]2(N)C3)n1 [TE] | * (toxicities greater than >25 μg/ml are represented by *)
CCOC(=O)c1coc(NCc2cc(N(C)C)c3c(c2O)C(=O)C2=C(O)[C@]4(C#N)C(=O)C(C(N)=O)=C(O)[C@@H](N(C)C)[C@]4(N)C[C@]2(N)C3)n1 [TF] | * (toxicities greater than >25 μg/ml are represented by *)
CN(C)[C@@H]1C(O)=C(C(N)=O)C(=O)[C@@]2(C#N)C(O)=C3C(=O)c4c(O)c(CNCC(C)(C)C)cc(CNCC(C)(C)C)c4C[C@@]3(N)C[C@@]12N [TG] | * (toxicities greater than >25 μg/ml are represented by *)
CN(C)c1cc(CNCc2ccccc2)c(O)c2c1C[C@@]1(N)C[C@@]3(N)[C@H](N(C)C)C(O)=C(C(N)=O)C(=O)[C@@]3(C#N)C(O)=C1C2=O [TH] | * (toxicities greater than >25 μg/ml are represented by *)
Cc1noc(C)c1S(=O)(=O)NCc1cc(N(C)C)c2c(c1O)C(=O)C1=C(O)[C@]3(C#N)C(=O)C(C(N)=O)=C(O)[C@@H](N(C)C)[C@]3(N)C[C@]1(N)C2 [TJ] | * (toxicities greater than >25 μg/ml are represented by *)
CN(C)c1cc(CNCC(C)(C)C)c(O)c2c1C[C@@]1(N)C[C@@]3(N)[C@H](N(C)C)C(O)=C(C(N)=O)C(=O)[C@@]3(C#N)C(O)=C1C2=O [TK] | * (toxicities greater than >25 μg/ml are represented by *)
CN(C)[C@@H]1C(O)=C(C(N)=O)C(=O)[C@@]2(C#N)C(O)=C3C(=O)c4c(O)ccc(-c5cncnc5)c4C[C@@]3(N)C[C@@]12N [TQ] | * (toxicities greater than >25 μg/ml are represented by *)
CN(C)c1cc(NCc2cc(F)cc(F)c2)c(O)c2c1C[C@@]1(N)C[C@@]3(N)[C@H](N(C)C)C(O)=C(C(N)=O)C(=O)[C@@]3(C#N)C(O)=C1C2=O [TS] | ** (toxicities less than 25 μg/mL are represented by **)
CCCCCC(=O)c1ccc(O)c2c1C[C@@]1(N)C[C@@]3(N)[C@H](N(C)C)C(O)=C(C(N)=O)C(=O)[C@@]3(C#N)C(O)=C1C2=O [TT] | ** (toxicities less than 25 μg/mL are represented by **)
CN(C)c1cc(NCc2ccc(C#N)cc2)c(O)c2c1C[C@@]1(N)C[C@@]3(N)[C@H](N(C)C)C(O)=C(C(N)=O)C(=O)[C@@]3(C#N)C(O)=C1C2=O [TU] | * (toxicities greater than >25 μg/ml are represented by *)
CC(C)c1ccc(CNc2cc(N(C)C)c3c(c2O)C(=O)C2=C(O)[C@]4(C#N)C(=O)C(C(N)=O)=C(O)[C@@H](N(C)C)[C@]4(N)C[C@]2(N)C3)cc1 [TV] | ** (toxicities less than 25 μg/mL are represented by **)
COc1ccc(CNc2cc(N(C)C)c3c(c2O)C(=O)C2=C(O)[C@]4(C#N)C(=O)C(C(N)=O)=C(O)[C@@](N)(N(C)C)[C@]4(N)C[C@]2(N)C3)cc1O [TW] | * (toxicities greater than >25 μg/ml are represented by *)
CN(C)c1cc(NCC2=CC=C(C(C)(C)C)CC2)c(O)c2c1C[C@@]1(N)C[C@@]3(N)[C@H](N(C)C)C(O)=C(C(N)=O)C(=O)[C@@]3(C#N)C(O)=C1C2=O [TX] | ** (toxicities less than 25 μg/mL are represented by **)
CN(C)c1cc(NCc2ccc(O)c(O)c2)c(O)c2c1C[C@@]1(N)C[C@@]3(N)[C@H](N(C)C)C(O)=C(C(N)=O)C(=O)[C@@]3(C#N)C(O)=C1C2=O [TY] | * (toxicities greater than >25 μg/ml are represented by *)
C=CCC(O)c1ccc(OC)c(-c2ccc(O)c3c2C[C@@]2(N)C[C@@]4(N)[C@H](N(C)C)C(O)=C(C(N)=O)C(=O)[C@@]4(C#N)C(O)=C2C3=O)c1 (stereo partly drawn) [UE] | ** (toxicities less than 25 μg/mL are represented by **)
COC(=O)/C=C/c1cccc(-c2ccc(O)c3c2C[C@@]2(N)C[C@@]4(N)[C@H](N(C)C)C(O)=C(C(N)=O)C(=O)[C@@]4(C#N)C(O)=C2C3=O)c1 [UF] | ** (toxicities less than 25 μg/mL are represented by **)
CN(C)c1cc(NCc2ccc([N+](=O)O)o2)c(O)c2c1C[C@@]1(N)C[C@@]3(N)[C@H](N(C)C)C(O)=C(C(N)=O)C(=O)[C@@]3(C#N)C(O)=C1C2=O [UH] | ** (toxicities less than 25 μg/mL are represented by **)
CN(C)[C@@H]1C(O)=C(C(N)=O)C(=O)[C@@]2(C#N)C(O)=C3C(=O)c4c(O)ccc(-c5cccnc5)c4C[C@@]3(N)C[C@@]12N [UL] | ** (toxicities less than 25 μg/mL are represented by **)

Structure (SMILES) | In Vitro Cytotoxicity
CCC(NCc1cc(N(C)C)c2c(c1O)C(=O)C1=C(O)[C@]3(C#N)C(=O)C(C(N)=O)=C(O)[C@@H](N(C)C)[C@]3(N)C[C@]1(N)C2)C(F)(F)F (stereo partly drawn) [UM] | ** (toxicities less than 25 μg/mL are represented by **)
CN(C)[C@@H]1C(O)=C(C(N)=O)C(=O)[C@@]2(C#N)C(O)=C3C(=O)c4c(O)ccc(-c5ccncc5)c4C[C@@]3(N)C[C@@]12N [UN] | ** (toxicities less than 25 μg/mL are represented by **)
CN(C)[C@@H]1C(O)=C(C(N)=O)C(=O)[C@@]2(C#N)C(O)=C3C(=O)c4c(O)ccc(-c5ccc(CNc6cccnc6)cc5)c4C[C@@]3(N)C[C@@]12N [UO] | ** (toxicities less than 25 μg/mL are represented by **)
CC(=O)OCC(=O)Nc1ccc(-c2ccc(O)c3c2C[C@@]2(N)C[C@@]4(N)[C@H](N(C)C)C(O)=C(C(N)=O)C(=O)[C@@]4(C#N)C(O)=C2C3=O)cc1 [UR] | ** (toxicities less than 25 μg/mL are represented by **)
CN(C)[C@@H]1C(O)=C(C(N)=O)C(=O)[C@@]2(C#N)C(O)=C3C(=O)c4c(O)ccc(-c5ccc(NC(=O)NCCCCl)cc5)c4C[C@@]3(N)C[C@@]12N [US] | ** (toxicities less than 25 μg/mL are represented by **)
COC(=O)CCC(=O)Nc1ccc(-c2ccc(O)c3c2C[C@@]2(N)C[C@@]4(N)[C@H](N(C)C)C(O)=C(C(N)=O)C(=O)[C@@]4(C#N)C(O)=C2C3=O)cc1 [UT] | ** (toxicities less than 25 μg/mL are represented by **)
CN(C)[C@@H]1C(O)=C(C(N)=O)C(=O)[C@@]2(C#N)C(O)=C3C(=O)c4c(O)ccc(-c5ccc(NC(=O)CBr)cc5)c4C[C@@]3(N)C[C@@]12N [UV] | ** (toxicities less than 25 μg/mL are represented by **)
Cc1cccnc1-c1ccc(O)c2c1C[C@@]1(N)C[C@@]3(N)[C@H](N(C)C)C(O)=C(C(N)=O)C(=O)[C@@]3(C#N)C(O)=C1C2=O [UW] | * (toxicities greater than >25 μg/ml are represented by *)
CN(C)[C@@H]1C(O)=C(C(N)=O)C(=O)[C@@]2(C#N)C(O)=C3C(=O)c4c(O)ccc(-c5cnccn5)c4C[C@@]3(N)C[C@@]12N [UX] | * (toxicities greater than >25 μg/ml are represented by *)
CCc1cncc(-c2ccc(O)c3c2C[C@@]2(N)C[C@@]4(N)[C@H](N(C)C)C(O)=C(C(N)=O)C(=O)[C@@]4(C#N)C(O)=C2C3=O)c1 [UY] | ** (toxicities less than 25 μg/mL are represented by **)
CN(C)[C@@H]1C(O)=C(C(N)=O)C(=O)[C@@]2(C#N)C(O)=C3C(=O)c4c(O)ccc(-c5ccc(NC(=O)CNC(C)(C)C)cc5)c4C[C@@]3(N)C[C@@]12N [UZ] | ** (toxicities less than 25 μg/mL are represented by **)
CN(C)[C@@H]1C(O)=C(C(N)=O)C(=O)[C@@]2(C#N)C(O)=C3C(=O)c4c(O)ccc(-c5ccc(NC(=O)CN)cc5)c4C[C@@]3(N)C[C@@]12N [VA] | ** (toxicities less than 25 μg/mL are represented by **)
CCc1ccnc(-c2ccc(O)c3c2C[C@@]2(N)C[C@@]4(N)[C@H](N(C)C)C(O)=C(C(N)=O)C(=O)[C@@]4(C#N)C(O)=C2C3=O)c1 [VB] | ** (toxicities less than 25 μg/mL are represented by **)
Cc1ccc(-c2ccc(O)c3c2C[C@@]2(N)C[C@@]4(N)[C@H](N(C)C)C(O)=C(C(N)=O)C(=O)[C@@]4(C#N)C(O)=C2C3=O)nc1 [VC] | ** (toxicities less than 25 μg/mL are represented by **)
CN(C)c1cc(CNc2ccccc2)c(O)c2c1C[C@@]1(N)C[C@@]3(N)[C@H](N(C)C)C(O)=C(C(N)=O)C(=O)[C@@]3(C#N)C(O)=C1C2=O [VD] | ** (toxicities less than 25 μg/mL are represented by **)
Cc1ccnc(-c2ccc(O)c3c2C[C@@]2(N)C[C@@]4(N)[C@H](N(C)C)C(O)=C(C(N)=O)C(=O)[C@@]4(C#N)C(O)=C2C3=O)c1 [VE] | ** (toxicities less than 25 μg/mL are represented by **)
CN(C)[C@@H]1C(O)=C(C(N)=O)C(=O)[C@@]2(C#N)C(O)=C3C(=O)c4c(O)ccc(-c5cncc(Br)c5)c4C[C@@]3(N)C[C@@]12N [VF] | ** (toxicities less than 25 μg/mL are represented by **)
COC(=O)C1C(=O)[C@@]2(O)C(O)=C3C(=O)c4c(O)c(N(C)Cc5cc[nH]n5)cc(N(C)C)c4C[C@@]3(N)C[C@@]2(N)[C@H](N(C)C)C1OC (stereo partly drawn) [VG] | ** (toxicities less than 25 μg/mL are represented by **)
CN(C)c1cc(NCc2ccc([N+](=O)O)cc2)c(O)c2c1C[C@@]1(N)C[C@@]3(N)[C@H](N(C)C)C(O)=C(C(N)=O)C(=O)[C@@]3(C#N)C(O)=C1C2=O [VH] | ** (toxicities less than 25 μg/mL are represented by **)
Cc1cccc(-c2ccc(O)c3c2C[C@@]2(N)C[C@@]4(N)[C@H](N(C)C)C(O)=C(C(N)=O)C(=O)[C@@]4(C#N)C(O)=C2C3=O)n1 [VJ] | ** (toxicities less than 25 μg/mL are represented by **)
CC(CF)Nc1ccc(-c2ccc(O)c3c2C[C@@]2(N)C[C@@]4(N)[C@H](N(C)C)C(O)=C(C(N)=O)C(=O)[C@@]4(C#N)C(O)=C2C3=O)cc1 (stereo partly drawn) [VK] | ** (toxicities less than 25 μg/mL are represented by **)
